Holding throughout (assay type): cell-based
Assay [1] addresses T1, human EDG8 (S1PR5) receptor (Homo sapiens, UniProt Q9H228).
T1 construct: carries the transgenes human EDG8 (S1PR5) receptor (Acession number NP_110387.1); expressed in transfected cells; host or cells: CHO-A21-EDG8#12 (CHO clone co-expressing mitochondrial aequorin and chimaeric Gaqi5)
In words: Aequorin assay, agonist potency, CHO-A21-EDG8#12 cells. Conditions: agonist mode, aequorin luminescence; read-out: S1P5 EC50 range #. The procedure, abridged:
(§1)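 CHO cells coexpressing receptor, mitochondrial aequorin and Gαqi5 (S1P3 pool: GNA16) were loaded overnight at RT with 5 μM coelenterazine h in 0.1% fatty-acid-free BSA buffer. Cells were injected onto compound, luminescence recorded 90 s and integrated, normalised to digitonin or 20 μM ATP; sigmoidal fit.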

Assay [2] deals with T2, human EDG1 (S1PR1) receptor (Homo sapiens, UniProt P21453).
T2 construct: expressed in transfected cells; host or cells: CHO-A21-Edg1#17 (CHO clone co-expressing mitochondrial aequorin and chimaeric Gaqi5)
In words: Aequorin assay, agonist potency, CHO-A21-Edg1#17 cells. Conditions: agonist mode, aequorin luminescence; read-out: S1P1 EC50. The procedure, abridged: as §1

Another assay deals with T3, S1P4 (Homo sapiens, UniProt O95977).
T3 sequence (O95977 1-384): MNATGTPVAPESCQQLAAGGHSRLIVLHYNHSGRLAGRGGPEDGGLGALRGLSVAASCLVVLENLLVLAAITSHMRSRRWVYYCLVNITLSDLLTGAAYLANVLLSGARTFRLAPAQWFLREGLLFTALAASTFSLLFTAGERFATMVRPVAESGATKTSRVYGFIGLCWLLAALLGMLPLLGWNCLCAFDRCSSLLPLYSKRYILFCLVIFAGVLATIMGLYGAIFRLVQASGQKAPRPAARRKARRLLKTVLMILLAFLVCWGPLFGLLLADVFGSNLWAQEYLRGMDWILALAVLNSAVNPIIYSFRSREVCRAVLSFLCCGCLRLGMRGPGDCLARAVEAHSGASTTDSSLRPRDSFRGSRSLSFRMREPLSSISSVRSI
In words: Aequorin assay, agonist potency, S1P4. The following applies: agonist mode, aequorin luminescence. An outline of the steps:
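Cells loaded overnight at RT with 5 μM coelenterazine h in DMEM/HAM's F12 with HEPES plus 0.1% fatty acid-free BSA, then injected onto compounds; agonist-induced calcium luminescence recorded for 90 s and integrated. Signal normalised to digitonin (100 μM) or ATP (20 μM) wells, S1P as reference agonist; sigmoidal nonlinear regression.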

T2 sequence (P21453 whole entry): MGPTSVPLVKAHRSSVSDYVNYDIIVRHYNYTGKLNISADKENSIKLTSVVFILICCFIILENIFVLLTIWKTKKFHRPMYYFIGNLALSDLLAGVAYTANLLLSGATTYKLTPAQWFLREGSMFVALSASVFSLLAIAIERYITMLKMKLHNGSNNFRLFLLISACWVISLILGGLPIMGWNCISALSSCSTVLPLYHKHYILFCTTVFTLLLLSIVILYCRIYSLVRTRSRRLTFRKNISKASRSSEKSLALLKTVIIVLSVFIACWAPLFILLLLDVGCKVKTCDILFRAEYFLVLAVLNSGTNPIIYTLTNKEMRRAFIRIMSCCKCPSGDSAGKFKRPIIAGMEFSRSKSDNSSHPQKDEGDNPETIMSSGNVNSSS
T1 sequence (Q9H228 whole entry): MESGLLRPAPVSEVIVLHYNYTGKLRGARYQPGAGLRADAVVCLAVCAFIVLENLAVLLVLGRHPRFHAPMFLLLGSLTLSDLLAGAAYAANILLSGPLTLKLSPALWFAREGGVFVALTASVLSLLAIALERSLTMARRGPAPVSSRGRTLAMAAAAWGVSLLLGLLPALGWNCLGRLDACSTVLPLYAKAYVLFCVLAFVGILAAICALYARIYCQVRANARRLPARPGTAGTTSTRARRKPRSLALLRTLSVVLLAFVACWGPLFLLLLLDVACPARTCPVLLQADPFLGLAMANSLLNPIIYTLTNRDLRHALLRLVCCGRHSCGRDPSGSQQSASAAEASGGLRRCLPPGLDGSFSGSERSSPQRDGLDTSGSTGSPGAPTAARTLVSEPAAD

The term EC50 denotes the midpoint of the concentration-response curve. As for `CCCCc1ccc(COc2ccc3c(c2)CC2(C3)CN(CC(=O)O)C2)c(Cl)c1` [Example 3, 2-(5′-((4-butyl-2-chlorobenzyl)oxy)-1′,3′-dihydrospiro[azetidine-3,2′-inden]-1-yl)acetic acid], the EC50 in assay [1] was 1 to 10 µM; in assay [2], over 1 µM; on S1P4, under 1 µM.

In the case of `Cc1cccc(F)c1COc1ccc2c(c1)CC1(C2)CN(CC(=O)O)C1` [Example 17, 2,2,2-trifluoroacetic acid compound with 2-(5′-((2-fluoro-6-methylbenzyl)oxy)-1′,3′-dihydrospiro[azetidine-3,2′-inden]-1-yl)acetic acid (1:1)], the figures for the EC50 (in assay [1]; in assay [2]; at S1P4) were at most 0.01 µM, over 1 µM and under 1 µM, respectively.

Regarding `CCOc1ccc(C#Cc2ccc3c(c2)OC2(C3)CN(CC(=O)O)C2)cc1` [Example 154, 2-(6′-((4-ethoxyphenyl)ethynyl)-3′H-spiro[azetidine-3,2′-benzofuran]-1-yl)acetic acid], the values for the EC50 (in assay [1]; in assay [2]; on S1P4) were 0.01 to 0.1 µM, under 1 µM and over 1 µM, respectively.

With `O=C(O)C1CC(N2CC3(Cc4ccc(C#Cc5ccc(OC6CCCC6)nc5)cc4C3)C2)C1` (stereo not drawn) [Example 95, 3-(5′-((6-(cyclopentyloxy)pyridin-3-yl)ethynyl)-1′,3′-dihydrospiro[azetidine-3,2′-inden]-1-yl)cyclobutanecarboxylic acid], the EC50 in assay [1] is at most 0.01 µM; in assay [2] it was under 1 µM; at S1P4 it was under 1 µM.

As for `O=C(O)C1(CN2CC3(Cc4ccc(OCCc5ccc(F)cc5)cc4C3)C2)CC1` [Example 137, 1-((5′-(4-fluorophenethoxy)-1′,3′-dihydrospiro[azetidine-3,2′-inden]-1-yl)methyl)cyclopropanecarboxylic acid], the EC50 was 1 to 10 µM in assay [1], over 1 µM in assay [2] and under 1 µM at S1P4.

As to `CC(C)Oc1ccc(C#Cc2ccc3c(c2)CC2(C3)CN(CC3(C(=O)O)CC3)C2)cc1` [Example 113, 1-((5′-((4-isopropoxyphenyl)ethynyl)-1′,3′-dihydrospiro[azetidine-3,2′-inden]-1-yl)methyl)cyclopropanecarboxylic acid], the figures for the EC50 (in assay [1]; in assay [2]; at S1P4) were at most 0.01 µM, under 1 µM and over 1 µM, respectively.

For the compound `O=C(O)CN1CC2(Cc3ccc(OC4CCc5ccccc54)cc3C2)C1` (stereo not drawn) [Example 66, 2-(5′-((2,3-dihydro-1H-inden-1-yl)oxy)-1′,3′-dihydrospiro[azetidine-3,2′-inden]-1-yl)acetic acid], the EC50 in assay [1] was at most 0.01 µM; in assay [2], over 1 µM; on S1P4 it was under 1 µM.

For the compound `O=C(O)C1(CN2CC3(Cc4ccc(OCCc5ccccc5)cc4C3)C2)CC1` [Example 54, 1-((5′-phenethoxy-1′,3′-dihydrospiro[azetidine-3,2′-inden]-1-yl)methyl)cyclopropanecarboxylic acid], the figures for the EC50 (in assay [1]; in assay [2]; on S1P4) were 1 to 10 µM, over 1 µM and under 1 µM, respectively.

As to `O=C(O)C1(CN2CC3(Cc4ccc(OCCc5c[nH]c6ccccc56)cc4C3)C2)CC1` [Example 144, 1-((5′-(2-(1H-indol-3-yl)ethoxy)-1′,3′-dihydrospiro[azetidine-3,2′-inden]-1-yl)methyl)cyclopropanecarboxylic acid], the EC50 in assay [1] is 1 to 10 µM; in assay [2], over 1 µM; at S1P4, over 1 µM.

Take `O=C(O)C1(CN2CC3(Cc4ccc(OCc5cc(Cl)cnc5Cl)cc4C3)C2)CC1` [Example 124, 1-((5′-((2,5-dichloropyridin-3-yl)methoxy)-1′,3′-dihydrospiro[azetidine-3,2′-inden]-1-yl)methyl)cyclopropanecarboxylic acid]: the EC50 in assay [1] was 1 to 10 µM; in assay [2] it was over 1 µM; at S1P4 it was under 1 µM.

(Values after US20200055817A1 (AbbVie Deutschland GmbH & Co. KG, priority 2016, published 2020).)
